Reference: paper PMC7217877, “N-AS-triggered SPMs are direct regulators of microglia in a model of Alzheimer’s disease” (Nature Communications, 2020)
Values joined by “and” are separate entries in the source; they are usually repeats but may differ in a detail not shown here. Equal entries are not always repeated.

B1: Sphk1: purified sphingosine kinase1 enzyme (Cayman, 10348) supplemented to cell lysates (protein, UniProt Q9NYA1 1-384, looked up)
Sphingosine kinase 1: MDPAGGPRGVLPRPCRVLVLLNPRGGKGKALQLFRSHVQPLLAEAEISFTLMLTERRNHARELVRSEELGRWDALVVMSGDGLMHEVVNGLMERPDWETAIQKPLCSLPAGSGNALAASLNHYAGYEQVTNEDLLTNCTLLLCRRLLSPMNLLSLHTASGLRLFSVLSLAWGFIADVDLESEKYRRLGEMRFTLGTFLRLAALRTYRGRLAYLPVGRVGSKTPASPVVVQQGPVDAHLVPLEEPVPSHWTVVPDEDFVLVLALLHSHLGSEMFAAPMGRCAAGVMHLFYVRAGVSRAMLLRLFLAMEKGRHMEYECPYLVYVPVVAFRLEPKDGKGVFAVDGELMVSEAVQGQVHPNYFWMVSGCVEPPPSWKPQQMPPPEEPL

Test system: neuron
Assay: quantification of 15R-LXA4, RvE1, RvD1 in primary cells (LC-MS/MS)
Assay type: cell-based, C57BL/6 mice
Design: unit not given here
Details: replicates
Method: Lipid mediators metabololipidomics were performed according to previously described procedures with minor modifications[4],[30]. To confirm the biosynthesis of lipid mediators by recombinant COX2 treated with N-AS or aspirin, 10 U of human recombinant COX2 (Cayman, 60122) was incubated in the presence of 500 μM aspirin (Sigma-Aldrich, A5376) or N-AS (Sigma-Aldrich, 01912) at 37 °C for 30 min. The enzyme was filtered with a Microcon column (Millipore) to remove unreacted aspirin or N-AS and was then resuspended in 0.1 M Tris-HCl (pH 8.0). Next, 500 μM phenol (Sigma-Aldrich) and 1 μM hematin-porcine (Sigma-Aldrich) were added immediately before incubation with 100 μM AA, EPA or DHA (Cayman) at 37 °C for 2 h, respectively. The mixtures were incubated with 30 U of human 5-LOX (Cayman, 60402) containing 2 mM CaCl2 (Sigma-Aldrich), 1 mM ATP (Amresco) and 5 μM 13-HpODE (Cayman) as activators. Also, to validate the importance of residue S565 for N-AS-acetylation of COX2 and production of SPMs, 10 U of the COX2 S565A mutant was used in the above-described method. In addition, to confirm SPM generation in neurons and microglia, these cells were treated with Aβ and sonicated in neuronal and glial culture medium. […] To evaluate the relationship of N-AS and SPM production in microglia, microglia were isolated from WT, APP/PS1, and APP/PS1 treated with N-AS mice at 9 months of age. The microglia were sonicated and resuspended in microglial culture medium. The supernatants were incubated with 100 μM AA, EPA, and DHA (Cayman) at 37 °C for 2 h. A 50 μl aliquot of the mixture from each cell lysate was added to a 250 μl aliquot of 1 ng ml^−1 of 15S-LXA4-d5 (internal standard, Cayman) methanol solution. After vortexing for 10 min and centrifuging at 15,974×g for 5 min, the supernatant was subjected to the analysis of the lipid mediators using an Agilent 6470 Triple Quad LC-MS/MS system (Agilent) coupled to an Agilent 1290 HPLC system. Chromatographic separation was achieved using a Synergi Polar RP (4 μm, 2.0 mm i.d. × 150 mm, Phenomenex). Analytes were eluted with a mobile phase consisting of water: formic acid (100:0.1 v/v) (phase A) and methanol: formic acid (100:0.1 v/v) (phase B) in gradient elution mode for 23 min a flow rate of 0.2 ml min^−1. The elution gradient was as follows: from 0 to 0.1 min the content of phase A was 37% and the content of phase A was decreased to 10% and maintained for 5.5 min. The content of phase A was increased back to 37% at 6.0 min and maintained for 23 min. Quantification was carried out using MRM in negative ionization mode and collision energy of 10–15 eV. The mass transition from Q1 to Q3 is shown in Supplementary Table 2. In this study, the peak areas for all components were automatically integrated using MassHunter B 06.00.
To confirm the generation and roles of N-AS in neurons, cells from E18 C57BL/6 mice were prepared as previously described. Cortices were dissected and then dissociated followed by incubation in papain (Worthington) at 37 °C for 15 min. Neurons were plated on poly-L-lysine-coated coverslips with neuronal culture medium, serum-free Neurobasal medium (Gibco) containing 2% B27 supplements (Gibco), 1 mM Glutamax supplement (Gibco), and 100 U ml^−1 streptomycin/ 100 U ml^−1 penicillin (Gibco) at 37 °C in a humidified atmosphere of 5% CO2. […] Primary astrocyte cultures were prepared from C57BL/6 mice as described previously. In brief, after removal of the meninges, postnatal day 7 (P7) mouse brain tissues were minced and incubated in a rocking water bath at 37 °C for 30 min in the presence of 0.25% trypsin-EDTA (Sigma-Aldrich). Enzyme-digested dissociated cells were triturated with astrocyte-specific medium (DMEM/F12 containing 10% FBS and 1% penicillin-streptomycin) and centrifuged at 155×g for 8 min. The pellet was resuspended in astrocyte-specific medium and passed through a 40-μm cell strainer. […]

Molecule	15R-LxA4 (Fig 3i) (Ab + supplement)	RvD1 (Fig 3i) (Ab + supplement)	RvE1 (Fig 3i) (Ab + supplement)	15R-LxA4 (Fig 3i) (Ab, no supplement)	RvD1 (Fig 3i) (Ab, no supplement)	RvE1 (Fig 3i) (Ab, no supplement)
CC(=O)SCCNC(=O)CCNC(=O)[C@H](O)C(C)(C)COP(=O)(O)OP(=O)(O)OC[C@H]1O[C@@H](n2cnc3c(N)ncnc32)[C@H](O)[C@@H]1OP(=O)(O)O [Acetyl-CoA, acetyl-CoA]	0.02549 and 0.02793 and 0.0321 and 0.02233 and 0.02865 and 0.02722	0.01313 and 0.01214 and 0.01403 and 0.01264 and 0.01308 and 0.01333	0.01432 and 0.01422 and 0.01286 and 0.01427 and 0.01354 and 0.01357			
CCCCCCCCCCCCC/C=C/[C@@H](O)[C@H](CO)NC(C)=O [N-AS, N-((2S,3R,E)-1,3-Dihydroxyoctadec-4-en-2-yl)acetamide]	3.35 and 3.4991 and 3.7074 and 3.111 and 3.589 and 3.409	0.555 and 0.7676 and 0.6961 and 0.6613 and 0.7318 and 0.6787	3.2 and 3.853 and 3.712 and 3.527 and 3.7827 and 3.619			
CCCCCCCCCCCCC/C=C/[C@@H](O)[C@@H](N)CO [Sph, sphingosine]	0.02593 and 0.02461 and 0.02134 and 0.02662 and 0.02525 and 0.02398	0.01101 and 0.01211 and 0.01321 and 0.01156 and 0.01266 and 0.01239	0.01121 and 0.01127 and 0.01125 (2×) and 0.01124 and 0.01126			
Ab: Aβ 1–42 (Invitrogen, 03112) used to induce an AD environment in cells				0.02346 and 0.02267 and 0.02051 and 0.02367 and 0.02325 and 0.02209	0.01315 and 0.01104 and 0.01107 and 0.0121 and 0.01106 and 0.01158	0.0152 and 0.01424 and 0.01723 and 0.01472 and 0.01573 and 0.01598
B1	3.266 and 3.3679 and 3.485 and 3.078 and 3.454 and 3.282	0.5366 and 0.8616 and 0.7359 and 0.6991 and 0.7987 and 0.7175	3.815 and 3.7466 and 3.98 and 3.781 and 3.863 and 3.88			
